We go through 2 molecules from patent publication US11001587B2, “Substituted indazoles as phosphatidylinositol kinase inhibitors” (CUROVIR AB, priority 2017, dated 2021).

Read-outs that look alike come from different tables or passages of the source.

In one data set the test system is EV71. The data set can be described thus: Time of addition assay. The format is cell-based, Enterovirus 71. Particulars: Enterovirus A, 100 nM, EV71 at high titer. The protocol: The titer of the virus was determined by the standard method of tissue culture infective dose (TCID50) on cells. Briefly, cells were infected with 50 μl of virus suspension, and diluted 10-fold in media. The plates were incubated in 37° C. with 5% CO2 for 3-7 days and cells were inspected daily for CPE. After determining CPE, plates were stained with Gram's Crystal Violet solution and optical density was read at 540 nm. […] Substances at a final concentration of 0.1 nM-1 μM and the virus were added to the cells and incubated for 3-7 days depending on the virus and cell line used. As controls, uninfected cells and cells infected with virus (no substance) were included on each plate. The cells were stained with crystal violet after determining the CPE on infected controls and the optical density was read at 540 nm. The inhibition capacity was calculated as a % by comparison with non-infected and infected controls. Time of addition assay The assay was performed like the “in vitro assay in mammalian cell culture” described above with the exception that substance was added one hour pre inoculation (−1 h), at inoculation (0 h), and 2 hours (+2 h), 6 hours (+6 h) or 24 hours (+24 h) past inoculation. The virus EV71 was used at high titer for the test.

In data set [1] the test system is Coxsackie B3 (Nancy strain) virus. Briefly: CVB3-induced pancreatitis mouse model. In kind it is in vivo. Particulars: Coxsackie B3 Nancy strain infected SJL mice, 4 different dosages, treated 2 h pre-infection then once daily for 3 days. The procedure: Compounds of the present invention were studied in a CVB3 induced pancreatitis mouse model as described by van der Schaar et al (Antimicrob. Agents Chemother. 2013, 57(10):4971-4981). Animals (SJL mice) were infected intraperitoneally with 0.3 ml Coxsackie B3 (Nancy strain) virus (log TCID50=8). The animals were treated 2 h pre-infection and then once daily for 3 days. The animals were euthanized and organs were collected for pancreatitis evaluation by histopathology and for virus titer determination by immunohistochemistry and polymerase chain reaction (PCR). Pancreata were obtained from infected and uninfected control animals and from animals treated with 4 different dosages of Example 8, and HE-stained slides of the organs were prepared, studied and scored for signs of inflammation and necrosis on a scale from 0 to 3, as follows: 0=no abnormalities. […] The virus titer in the organs was determined by immunohistochemistry using the Dako 5-D8/1 monoclonal mouse antibody and the titer was scored on a scale from 0 to 4, where 0 indicates no infection and 4 corresponds to the highest determined virus titer (FIG. 4). The Ct values from PCR detection of virus titers were determined (FIG. 5). […] Corresponding studies were also performed on Examples 2, 8 and 20 at a dosage of 50 mg/kg/day and pancreatitis scoring and Ct values were determined (FIG. 6).

The nature of a further data set: in vivo. Details: species or system Sprague Dawley rats. The settings on record: Sprague Dawley, rat, po. The protocol:
Based on previous toxicity tests with analogs and pharmacokinetic data, repeated dose toxicity and toxicokinetic studies were conducted to generate information on the toxic characteristics of some representative compounds of the invention, viz. Example 8 and Example 12, respectively, when administered orally by gavage to Sprague Dawley rats for a period of 7 consecutive days. The study plan for the studies was by current ICH guidelines for 7 days toxicity studies and the No Observed Adverse Effect Level (NOAEL) of Example 8 and Example 12 was determined as 60 mg/kg body weight/day and 50 mg/kg bodyweight/day respectively when administered once daily orally to Sprague Dawley rats for 7 consecutive days under the tested dose levels and experimental conditions employed.

A word on the inhibition: it is the change of the read-out against control, counted positive when it falls. By NOAEL is commonly meant the highest tested level that showed no adverse finding.

Turning to `Cc1nc(NCc2ccncc2)n2nc(C)c(-c3ccc4c(c3)c(C)nn4C)c2n1` [Example 20, 8-(1,3-dimethyl-1H-indazol-5-yl)-2,7-dimethyl-N-(pyridin-4-ylmethyl)pyrazolo[1,5-a][1,3,5]triazin-4-amine], the inhibition at 0.1 µM was found to be 94% in the data set with EV71 (0 h, substance added at inoculation, read-out: Inhibition of cytopathogenic effect, 0 h); 85% with EV71 (1 h, substance added one hour pre inoculation, read-out: Inhibition of cytopathogenic effect, −1 h); 95% in the data set on EV71 (substance added 2 hours past inoculation, read-out: Inhibition of cytopathogenic effect, +2 h); 99% in the data set with EV71 (substance added 6 hours past inoculation, read-out: Inhibition of cytopathogenic effect, +6 h); 2% with EV71 (substance added 24 hours past inoculation, read-out: Inhibition of cytopathogenic effect, +24 h).
On to `Cc1cc(NCc2ccncc2)n2nc(C)c(-c3ccc4c(c3)c(C)nn4C)c2n1` [Example 8, 3-(1,3-dimethyl-1H-indazol-5-yl)-2,5-dimethyl-N-(pyridin-4-ylmethyl)pyrazolo[1,5-a]pyrimidin-7-amine], for which, in data set [1], the “Dose-response of pancreatitis scoring and virus titer” value is reported as “very good dose-response”. For the same molecule, the NOAEL at 7 days in the data set “in vivo” is 60 mg/kg/day.
